The results in this text go back to publication PMC3587609, “A Novel Cell-Penetrating Peptide Derived from Human Eosinophil Cationic Protein” (PLoS ONE, 2013).

Data set [1] has as its system Beas-2B cells. Description: Cell viability assay (MTT). How it is done:
Beas-2B cells were grown in serum-free medium in the presence of ECP^32–41 at indicated concentrations for 24 h. (A) The cytotoxic effect of ECP^32–41 was measured by MTT assay. The cell viability of untreated cells was set to 100%. Cells treated with 0.1% Triton X-100 was used as a positive control. (B) The membrane disruption by ECP^32–41 was measured by LDH assay. LDH released from cells lysed with 0.1% Triton X-100 in medium was defined as 100% leakage and LDH released from untreated cells was set as 0% leakage.
Beas-2B cells were incubated with 10 µM eGFP or eGFP-ECP^32–41 at 37°C for 1 h. The cells were then washed with 500 µl PBS, trypsinized at 37°C for 15 min, suspended in 500 µl PBS, and subjected to flow cytometry. (B) Beas-2B cells were treated with the indicated concentrations of TAT^47–57, ECP^32–41, KLA, KLA-TAT^47–57 or KLA-ECP^32–41 at 37°C for 24 h, and their cytotoxic effects were determined by the MTT assay. Cytotoxic effects of (C) KLA-TAT^47–57 and (D) KLA-ECP^32–41, at the indicated concentrations, on Beas-2B, A549, Caco-2, and AGS cells were assessed by the MTT assay after incubation at 37°C for 24 h. The cell viability untreated cells was set to 100%. The result is expressed as the mean ± S.D., n = 3.
The effects of the peptides on cell viability were determined colourimetrically using 3-(4,5-dimethylthiazol-2-yl)-2,5-diphenyltetrazolium bromide (MTT) (US Biological). Cells (1.0×10^4/well) were seeded into the wells of 96-well plates and incubated overnight. Cell samples were then exposed to different concentrations of TAT^47–57, ECP^32–41, KLA, KLA-TAT^47–57 or KLA-ECP^32–41. After 24 h, 100 µl of 0.5 mg/ml MTT in medium was added into each well, and the cells were incubated at 37°C for 3 h. The incubation medium was removed, and the remaining purple crystal formazan was dissolved in dimethylsulphoxide. Cells treated with 0.1% Triton X-100 was used as a positive control for cell viability. A540 values were measured using a multiwall plate reader (Molecular Devices).

The next data set deals with CHO-K1 cells. Description: Internalization into wild-type CHO cells (flow cytometry and CLSM). It is filed as cell-based, Chinese hamster. The settings on record: 5 µM FITC-ECP32–41, 37°C, 1 h. Here is the method:
(§1) Figure 3 HS-dependent ECP^32–-41 internalization. […] (B) Samples of wild-type and mutant CHO cells were each incubated with 5 µM FITC-ECP^32–41 at 37°C for 1 h and then subjected to flow cytometry. (C) Samples of wild-type and mutant CHO cells were incubated with 5 µM FITC-ECP^32–41 at 37°C for 1 h., then washed twice with 1 ml PBS, and fixed for CLSM. Nuclei were stained with Hoechst 34850. Scale bar: 20 µm. (D) Beas-2B cells were treated with heparinase I, heparinase III, or chondroitinase ABC for 2 h prior to incubation with 5 µM FITC-ECP^32–41 at 37°C for 1 h. […] Untreated cells served as the controls. The fluorescence of cells treated with FITC-ECP^32–41 was set to 100%. […] (E) Beas-2B cells were treated with heparinase I, heparinase III, or chondroitinase ABC for 2 h. […] Untreated cells served as the control. The fluorescence of the untreated cells was set to 100%.
(§2) Cells (3.0×10^5/well) were added into six-well plates and cultured in the indicated medium. After 24 h, each FITC-peptide, dissolved in medium, was added into a well and the samples incubated for 1 h. Cells were then harvested, washed, and suspended in PBS. The fluorescent intensities of the cell samples were measured using a FACSCalibur flow cytometer (BD Biosciences, Franklin Lakes, NJ) and excitation and emission wavelengths of 488 nm and 515–545 nm respectively. […]

In data set [2] the test system is Beas-2B cells. Description: Confocal laser-scanning microscopy (CLSM) of FITC-peptide internalization. It is filed as cell-based. To be noted: 5 µM peptide, 37°C, 5 and 60 min. How it is done:
Figure 1 Internalization of ECP^32–41 and EDN^32–41. (A) Beas-2B cells were incubated with 1, 5, 10, or 20 µM FITC-ECP^32–41, FITC-EDN^32–41, or FITC at 37°C for 1 h. […] (B) Beas-2B cells were incubated with 5 µM FITC-ECP^32–41, FITC-EDN^32–41, or FITC at 37°C for 5, 10, 30, or 60 min. The cells were then treated as described in (A) and subjected to flow cytometry. The results in (A) and (B) are expressed as the mean ± standard deviation (S.D.), n = 3. (C) Beas-2B cells were incubated with 5 µM FITC-ECP^32–41, FITC-EDN^32–41, or FITC at 37°C for 5 or 60 min before CLSM. Nuclei were stained with Hoechst 34850. Scale bar: 20 µm.
Cells were cultured on coverslips (1.0×10^4/coverslip) in indicated medium. After 24 h, cell samples were each incubated at 37°C for 1 h with an FITC-peptide. The cells were then washed twice with PBS, fixed with 2% (w/v) paraformaldehyde and incubated, first in PBS for 15 min, then with 50 mM NH4Cl in PBS for 10 min, and finally permeabilised with 0.5% (v/v) Triton-X-100 at 25°C for 5 min. Nuclei were stained with Hoechst 33342 Fluorescent Stain, (Sigma-Aldrich) during the final 5 min of incubation. Cells were then washed twice with 0.05% Triton-X-100, once with PBS, and the coverslips were mounted in a Vectashield anti-fade mounting medium (Vector Labs). […]

Data set [3] has as its system Beas-2B cells. The experiment in a line: Internalization after heparinase / chondroitinase ABC depletion of GAGs. The settings on record: 10 U/ml chondroitinase ABC, 37°C, 2 h, then 5 µM FITC-ECP32–41, 37°C, 1 h; flow cytometry; n = 3. It is filed as cell-based. Here is the method: as §1, §2
For a further data set, the system named is CHO pgsA-745 cells. Description: Internalization into GAG-deficient CHO cells (flow cytometry and CLSM). To be noted: CHO pgsA745 cells, 5 µM FITC-ECP32–41, 37°C, 1 h. It is filed as cell-based, Chinese hamster. How it is done: as §1, §2

Take NYRWRCKNQN [ECP^32–41]: in the data set on Beas-2B cells [1], the “cell viability (MTT) at 100 µM” value is on record as “neither peptide affected cell viability”. Moreover, the “internalization monitored by CLSM” value is given as “clearly observed for CHO-K1 cells” in the data set on CHO-K1 cells and “but not for CHO pgsD677 or pgsA745 cells” in the data set with CHO pgsA-745 cells. For the same sequence, in the data set on Beas-2B cells [2], the “intracellular fluorescence by CLSM” value is given as “clearly detected”. The “effect of CS depletion (chondroitinase ABC) on internalization” value in the data set on Beas-2B cells [3] is “little effect”.
